Reference: the supplement of paper PMC9005190

What was measured:
[1] = molecular target: T1, PAR1 (UniProt P25116); experiment: Emax (maximal agonist-induced change in ebBRET relative to vehicle) (% of vehicle response (amplitude of change)); higher = larger response (for Gs, larger decrease in membrane ebBRET, i.e. stronger Gs activation)
T1 sequence (whole entry): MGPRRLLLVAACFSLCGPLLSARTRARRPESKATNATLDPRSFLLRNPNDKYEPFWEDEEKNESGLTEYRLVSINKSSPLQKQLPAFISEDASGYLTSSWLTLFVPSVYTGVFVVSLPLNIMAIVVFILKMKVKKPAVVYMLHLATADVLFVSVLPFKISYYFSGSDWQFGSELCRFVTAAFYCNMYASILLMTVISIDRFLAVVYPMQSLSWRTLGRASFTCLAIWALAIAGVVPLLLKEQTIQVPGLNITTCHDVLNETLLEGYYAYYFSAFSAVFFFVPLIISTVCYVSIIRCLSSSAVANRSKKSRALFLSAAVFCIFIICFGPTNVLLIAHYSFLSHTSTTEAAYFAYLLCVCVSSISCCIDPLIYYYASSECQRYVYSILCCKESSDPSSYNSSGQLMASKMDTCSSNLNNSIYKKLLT

[2] = molecular target: T1, PAR1; experiment: pEC50 of agonist-induced pathway activation (ebBRET)
[3] = molecular target: T2, CRFR2 (UniProt Q13324); experiment: Emax (maximal agonist-induced change in ebBRET relative to vehicle) (% of vehicle response (amplitude of change)); higher = larger response (for Gs, larger decrease in membrane ebBRET, i.e. stronger Gs activation)
T2 sequence (whole entry): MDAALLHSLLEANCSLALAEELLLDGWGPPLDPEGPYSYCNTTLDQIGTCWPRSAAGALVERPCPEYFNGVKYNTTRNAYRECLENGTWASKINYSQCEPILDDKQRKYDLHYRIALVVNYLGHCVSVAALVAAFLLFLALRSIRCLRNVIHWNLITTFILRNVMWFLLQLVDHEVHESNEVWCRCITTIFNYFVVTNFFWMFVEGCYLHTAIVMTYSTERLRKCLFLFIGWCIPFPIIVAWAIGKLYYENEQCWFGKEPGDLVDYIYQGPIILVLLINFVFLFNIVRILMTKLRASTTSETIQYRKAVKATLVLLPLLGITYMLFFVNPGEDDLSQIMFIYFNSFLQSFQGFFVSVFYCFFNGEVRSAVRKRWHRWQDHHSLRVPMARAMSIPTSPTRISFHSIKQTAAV

[4] = molecular target: T2, CRFR2; experiment: pEC50 of agonist-induced pathway activation (ebBRET)
[5] = molecular target: T3, GPR39 (UniProt O43194); experiment: Emax (maximal agonist-induced change in ebBRET relative to vehicle) (% of vehicle response (amplitude of change)); higher = larger response (for Gs, larger decrease in membrane ebBRET, i.e. stronger Gs activation)
T3 sequence (whole entry): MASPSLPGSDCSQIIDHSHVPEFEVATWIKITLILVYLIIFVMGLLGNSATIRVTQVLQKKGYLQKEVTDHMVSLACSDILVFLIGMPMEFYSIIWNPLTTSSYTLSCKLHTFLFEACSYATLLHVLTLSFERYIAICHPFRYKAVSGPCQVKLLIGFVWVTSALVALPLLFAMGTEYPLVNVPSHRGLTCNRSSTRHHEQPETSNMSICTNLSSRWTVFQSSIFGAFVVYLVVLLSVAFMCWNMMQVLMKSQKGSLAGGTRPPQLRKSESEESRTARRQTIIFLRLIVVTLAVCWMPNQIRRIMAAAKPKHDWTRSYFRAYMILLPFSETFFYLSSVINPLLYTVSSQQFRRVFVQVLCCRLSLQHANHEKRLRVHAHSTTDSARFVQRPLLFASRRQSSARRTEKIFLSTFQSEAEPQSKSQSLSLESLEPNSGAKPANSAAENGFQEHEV

[6] = molecular target: T3, GPR39; experiment: pEC50 of agonist-induced pathway activation (ebBRET)
[7] = molecular target: T4, EP1 (UniProt P34995); experiment: as above
T4 sequence (whole entry): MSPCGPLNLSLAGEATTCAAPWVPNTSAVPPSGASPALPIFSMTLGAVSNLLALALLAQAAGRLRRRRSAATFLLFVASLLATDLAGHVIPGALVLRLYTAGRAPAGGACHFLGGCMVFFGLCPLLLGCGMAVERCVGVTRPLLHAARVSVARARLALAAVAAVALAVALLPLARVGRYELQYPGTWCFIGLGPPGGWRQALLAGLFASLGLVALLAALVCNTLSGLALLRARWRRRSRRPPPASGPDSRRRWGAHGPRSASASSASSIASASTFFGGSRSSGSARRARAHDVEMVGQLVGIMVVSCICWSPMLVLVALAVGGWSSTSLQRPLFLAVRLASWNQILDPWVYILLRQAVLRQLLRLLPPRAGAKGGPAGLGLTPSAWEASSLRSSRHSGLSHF

[8] = molecular target: P2Y2 (UniProt P41231); experiment: Emax (maximal agonist-induced change in ebBRET relative to vehicle) (% of vehicle response (amplitude of change)); higher = larger response (for Gs, larger decrease in membrane ebBRET, i.e. stronger Gs activation)
[9] = molecular target: P2Y2 (UniProt P41231); experiment: pEC50 of agonist-induced pathway activation (ebBRET)

Sequence of P2Y2 (P41231 whole entry): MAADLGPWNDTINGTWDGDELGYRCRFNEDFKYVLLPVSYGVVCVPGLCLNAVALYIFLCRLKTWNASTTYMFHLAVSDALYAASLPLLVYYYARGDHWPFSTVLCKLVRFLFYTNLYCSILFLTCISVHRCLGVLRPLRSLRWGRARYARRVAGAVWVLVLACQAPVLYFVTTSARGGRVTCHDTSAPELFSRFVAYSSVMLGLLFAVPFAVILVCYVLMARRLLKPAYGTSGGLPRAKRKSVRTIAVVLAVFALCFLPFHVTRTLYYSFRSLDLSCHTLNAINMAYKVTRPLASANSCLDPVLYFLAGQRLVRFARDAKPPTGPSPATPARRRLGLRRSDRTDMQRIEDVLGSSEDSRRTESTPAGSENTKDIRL

CC(C)C[C@H](NC(=O)[C@H](CC(C)C)NC(=O)[C@H](Cc1ccccc1)NC(=O)[C@@H](N)[C@@H](C)O)C(=O)N[C@@H](CCCN=C(N)N)C(N)=O [TFLLR-NH2]
Conditions | Emax, [1] | pEC50, [2]
pathway (G protein / arrestin sensor): G11 | 382 | 6.55
pathway (G protein / arrestin sensor): G13 | 193 | 7.11
pathway (G protein / arrestin sensor): G14 | 405 | 5.74
pathway (G protein / arrestin sensor): G15 | 332 | 6.22
pathway (G protein / arrestin sensor): Gi1 | 574 | 4
pathway (G protein / arrestin sensor): Gi2 | 177 | 5.04
pathway (G protein / arrestin sensor): GoA | 73 | 5.89
pathway (G protein / arrestin sensor): GoB | 221 | 6
pathway (G protein / arrestin sensor): Gq | 238 | 6.72
pathway (G protein / arrestin sensor): Gz | 144 | 6.41
pathway (G protein / arrestin sensor): βarr1/GRK2 | 446 | 5.08
pathway (G protein / arrestin sensor): βarr2 | 439 | 5.12
pathway (G protein / arrestin sensor): βarr2/GRK2 | 470 | 5.18

CC[C@H](C)[C@H](N)C(=O)N[C@H](C(=O)N[C@@H](CC(C)C)C(=O)N[C@@H](CO)C(=O)N[C@@H](CC(C)C)C(=O)N[C@@H](CC(=O)O)C(=O)N[C@H](C(=O)N1CCC[C@H]1C(=O)N[C@H](C(=O)NCC(=O)N[C@@H](CC(C)C)C(=O)N[C@@H](CC(C)C)C(=O)N[C@@H](CCC(N)=O)C(=O)N[C@H](C(=O)N[C@@H](CC(C)C)C(=O)N[C@@H](CC(C)C)C(=O)N[C@@H](CCC(=O)O)C(=O)N[C@@H](CCC(N)=O)C(=O)N[C@@H](C)C(=O)N[C@@H](CCCNC(=N)N)C(=O)N[C@@H](C)C(=O)N[C@@H](CCCNC(=N)N)C(=O)N[C@@H](C)C(=O)N[C@@H](C)C(=O)N[C@@H](CCCNC(=N)N)C(=O)N[C@@H](CCC(=O)O)C(=O)N[C@@H](CCC(N)=O)C(=O)N[C@@H](C)C(=O)N[C@H](C(=O)N[C@H](C(=O)N[C@@H](CC(N)=O)C(=O)N[C@@H](C)C(=O)N[C@@H](CCCNC(=N)N)C(=O)N[C@H](C(=O)N[C@@H](CC(C)C)C(=O)N[C@@H](C)C(=O)N[C@@H](CCCNC(=N)N)C(=O)N[C@H](C(=O)NCC(=O)N[C@@H](Cc1cnc[nH]1)C(=O)N[C@@H](CS)C(N)=O)C(C)C)[C@@H](C)CC)[C@@H](C)O)[C@@H](C)O)[C@@H](C)CC)[C@@H](C)CC)C(C)C)C(C)C [Urocortin II]
Conditions | Emax, [3] | pEC50, [4]
pathway (G protein / arrestin sensor): G15 | 725 | 8.77
pathway (G protein / arrestin sensor): Gi1 | 442 | 8.2
pathway (G protein / arrestin sensor): Gi2 | 206 | 8.28
pathway (G protein / arrestin sensor): GoA | 159 | 8.33
pathway (G protein / arrestin sensor): GoB | 263 | 8.37
pathway (G protein / arrestin sensor): Gs | 57.3 | 10.3
pathway (G protein / arrestin sensor): Gz | 72.8 | 8.2
pathway (G protein / arrestin sensor): βarr1/GRK2 | 1420 | 8.08
pathway (G protein / arrestin sensor): βarr2 | 1090 | 7.98
pathway (G protein / arrestin sensor): βarr2/GRK2 | 1440 | 8.16

[Cl][Zn][Cl] [Zn2+]
Conditions | Emax, [5] | pEC50, [6]
pathway (G protein / arrestin sensor): G11 | 136 | 4.21
pathway (G protein / arrestin sensor): G13 | 120 | 5.39
pathway (G protein / arrestin sensor): G14 | 210 | 4.25
pathway (G protein / arrestin sensor): G15 | 37.6 | 4.38
pathway (G protein / arrestin sensor): Gi1 | 254 | 4.1
pathway (G protein / arrestin sensor): Gi2 | 80.9 | 4.19
pathway (G protein / arrestin sensor): GoA | 137 | 4.16
pathway (G protein / arrestin sensor): GoB | 197 | 4.25
pathway (G protein / arrestin sensor): Gq | 113 | 4.48
pathway (G protein / arrestin sensor): βarr2 | 61.7 | 4.03
pathway (G protein / arrestin sensor): βarr2/GRK2 | 41.4 | 4.02

CCCCC[C@H](O)/C=C/[C@H]1[C@H](O)CC(=O)[C@@H]1C/C=C\CCCC(=O)O [PGE2]
[7]
Conditions | pEC50
pathway (G protein / arrestin sensor): G11 | 8.27
pathway (G protein / arrestin sensor): G12 | 9.51
pathway (G protein / arrestin sensor): G13 | 8.04
pathway (G protein / arrestin sensor): G14 | 7.95
pathway (G protein / arrestin sensor): G15 | 9.29
pathway (G protein / arrestin sensor): Gi1 | 6.43
pathway (G protein / arrestin sensor): Gi2 | 7.37
pathway (G protein / arrestin sensor): GoA | 8
pathway (G protein / arrestin sensor): GoB | 7.46
pathway (G protein / arrestin sensor): Gq | 8.32
pathway (G protein / arrestin sensor): βarr2 | 7.41

O=c1ccn([C@@H]2O[C@H](COP(=O)(O)OP(=O)(O)OP(=O)(O)O)[C@@H](O)[C@H]2O)c(=O)[nH]1 [UTP]
Conditions | Emax, [8] | pEC50, [9]
pathway (G protein / arrestin sensor): G11 | 26.1 | 6.43
pathway (G protein / arrestin sensor): G14 | 26.7 | 6.29
pathway (G protein / arrestin sensor): G15 | 198 | 6.08
pathway (G protein / arrestin sensor): Gi1 | 59.2 | 6.29
pathway (G protein / arrestin sensor): Gi2 | 25.9 | 6.54
pathway (G protein / arrestin sensor): GoA | 85.7 | 5.94
pathway (G protein / arrestin sensor): GoB | 54.5 | 6.37
pathway (G protein / arrestin sensor): Gq | 29.2 | 6.4
pathway (G protein / arrestin sensor): Gz | 91.8 | 6.04
pathway (G protein / arrestin sensor): βarr1/GRK2 | 185 | 5.24
pathway (G protein / arrestin sensor): βarr2 | 346 | 4.99
pathway (G protein / arrestin sensor): βarr2/GRK2 | 94.7 | 5.36
